Experimental data reported in US11766420B2 (priority 2015, dated 2023).

System: HEK293T cells
Conditions: human

COc1ncc(-c2ccc3nc(N)n(-c4ccc(N5CCOCC5)cc4)c3c2)cc1S(=O)(=O)Nc1ccccc1F [A1, 5-(2-amino-1-(4-(4-morpholinyl)phenyl)-1H-benzimidazol-6-yl)-N-(2-fluorophenyl)-2-methoxy-3-pyridinesulfonamide]
Concentration that killed most of the cells (MTT): ≥ 250 nM
